Assay results as given in ChEMBL document CHEMBL5036349, “Development of potent dual PDK1/AurA kinase inhibitors for cancer therapy: Lead-optimization, structural insights, and ADME-Tox profile” (Eur J Med Chem, 2021).

Legend:
CAKI-1 [1] = assay: Cytotoxicity against human CAKI-1 cells measured after 72 hrs by MTT assay; assay type: functional, cell-based; settings: CAKI-1, 72 h
[2] = biological target: Histone deacetylase 4 (Homo sapiens) (UniProt P56524); assay: Inhibition on human recombinant HDAC4 at 10 uM measured after 20 min by luminescence glo assay
Chain of Histone deacetylase 4 (Homo sapiens) (P56524 whole entry): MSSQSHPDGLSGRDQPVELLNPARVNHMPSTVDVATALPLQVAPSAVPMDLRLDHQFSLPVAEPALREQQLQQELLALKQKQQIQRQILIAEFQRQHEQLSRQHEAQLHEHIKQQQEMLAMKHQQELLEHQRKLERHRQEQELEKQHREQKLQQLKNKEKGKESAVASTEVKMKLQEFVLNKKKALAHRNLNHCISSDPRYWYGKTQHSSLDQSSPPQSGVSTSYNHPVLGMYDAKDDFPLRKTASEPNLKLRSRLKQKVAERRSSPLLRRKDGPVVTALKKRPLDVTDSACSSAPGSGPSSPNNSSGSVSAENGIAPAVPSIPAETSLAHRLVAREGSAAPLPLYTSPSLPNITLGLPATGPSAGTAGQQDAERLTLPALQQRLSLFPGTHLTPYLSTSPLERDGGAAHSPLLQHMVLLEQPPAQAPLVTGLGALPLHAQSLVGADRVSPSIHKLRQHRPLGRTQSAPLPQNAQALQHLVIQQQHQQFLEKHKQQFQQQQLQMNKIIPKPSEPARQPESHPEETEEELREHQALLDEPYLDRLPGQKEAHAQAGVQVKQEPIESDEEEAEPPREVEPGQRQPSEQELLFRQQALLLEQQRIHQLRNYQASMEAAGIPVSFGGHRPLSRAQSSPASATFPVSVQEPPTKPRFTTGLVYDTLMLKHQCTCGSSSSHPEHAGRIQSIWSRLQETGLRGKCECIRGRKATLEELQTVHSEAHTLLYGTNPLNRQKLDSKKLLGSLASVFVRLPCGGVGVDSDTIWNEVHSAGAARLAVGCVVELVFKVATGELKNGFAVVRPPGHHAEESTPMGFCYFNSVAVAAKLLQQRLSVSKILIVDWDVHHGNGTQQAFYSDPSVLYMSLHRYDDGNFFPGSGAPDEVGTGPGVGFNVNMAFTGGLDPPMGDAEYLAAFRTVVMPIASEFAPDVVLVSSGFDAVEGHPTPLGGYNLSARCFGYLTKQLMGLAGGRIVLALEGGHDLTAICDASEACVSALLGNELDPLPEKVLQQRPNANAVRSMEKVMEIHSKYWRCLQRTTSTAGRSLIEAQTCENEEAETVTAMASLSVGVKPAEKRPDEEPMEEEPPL

[3] = biological target: T1, Histone deacetylase 8 (Homo sapiens) (UniProt Q9BY41); assay: Inhibition on human recombinant HDAC8 at 10 uM measured after 20 min by luminescence glo assay
T1 sequence (whole entry): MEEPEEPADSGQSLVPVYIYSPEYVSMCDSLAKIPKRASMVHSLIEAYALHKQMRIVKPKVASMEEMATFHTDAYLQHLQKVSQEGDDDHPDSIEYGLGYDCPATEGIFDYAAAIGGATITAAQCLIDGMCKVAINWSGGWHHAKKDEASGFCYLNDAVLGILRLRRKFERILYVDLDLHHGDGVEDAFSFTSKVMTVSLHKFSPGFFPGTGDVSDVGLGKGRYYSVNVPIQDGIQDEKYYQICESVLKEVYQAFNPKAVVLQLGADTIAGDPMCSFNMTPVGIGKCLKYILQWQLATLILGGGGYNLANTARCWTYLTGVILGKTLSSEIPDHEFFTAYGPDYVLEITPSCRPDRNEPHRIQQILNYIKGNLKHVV

[4] = biological target: T2, NAD-dependent protein deacetylase sirtuin-7 (Homo sapiens) (UniProt Q9NRC8); assay: Inhibition of human recombinant SIRT7 at 10 uM incubated for 20 mins followed by mixing and measure after 30 mins by Luminescence assay relative to control; settings: time 50.0 min
T2 sequence (whole entry): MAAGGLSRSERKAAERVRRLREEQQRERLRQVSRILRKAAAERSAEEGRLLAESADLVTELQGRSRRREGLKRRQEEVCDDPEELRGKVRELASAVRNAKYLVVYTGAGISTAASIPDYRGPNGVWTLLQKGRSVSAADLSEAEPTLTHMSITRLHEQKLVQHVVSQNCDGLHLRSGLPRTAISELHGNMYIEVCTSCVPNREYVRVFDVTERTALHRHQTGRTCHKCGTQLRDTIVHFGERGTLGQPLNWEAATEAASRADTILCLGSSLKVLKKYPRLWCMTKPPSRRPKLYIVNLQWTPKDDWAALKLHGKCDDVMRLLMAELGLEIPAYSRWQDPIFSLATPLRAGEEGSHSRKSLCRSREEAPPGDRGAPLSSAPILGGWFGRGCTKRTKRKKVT

HCT-116 [5] = assay: Cytotoxicity against human HCT-116 cells measured after 72 hrs by MTT assay; assay type: functional, cell-based; settings: HCT-116, 72 h
IGROV-1 [6] = assay: Cytotoxicity against human IGROV-1 cells measured after 72 hrs by MTT assay; assay type: functional, cell-based; settings: IGROV-1, 72 h
[7] = biological target: Histone deacetylase 9 (Homo sapiens) (UniProt Q9UKV0); assay: Inhibition on human recombinant HDAC9 at 10 uM measured after 20 min by luminescence glo assay
Chain of Histone deacetylase 9 (Homo sapiens) (Q9UKV0 whole entry): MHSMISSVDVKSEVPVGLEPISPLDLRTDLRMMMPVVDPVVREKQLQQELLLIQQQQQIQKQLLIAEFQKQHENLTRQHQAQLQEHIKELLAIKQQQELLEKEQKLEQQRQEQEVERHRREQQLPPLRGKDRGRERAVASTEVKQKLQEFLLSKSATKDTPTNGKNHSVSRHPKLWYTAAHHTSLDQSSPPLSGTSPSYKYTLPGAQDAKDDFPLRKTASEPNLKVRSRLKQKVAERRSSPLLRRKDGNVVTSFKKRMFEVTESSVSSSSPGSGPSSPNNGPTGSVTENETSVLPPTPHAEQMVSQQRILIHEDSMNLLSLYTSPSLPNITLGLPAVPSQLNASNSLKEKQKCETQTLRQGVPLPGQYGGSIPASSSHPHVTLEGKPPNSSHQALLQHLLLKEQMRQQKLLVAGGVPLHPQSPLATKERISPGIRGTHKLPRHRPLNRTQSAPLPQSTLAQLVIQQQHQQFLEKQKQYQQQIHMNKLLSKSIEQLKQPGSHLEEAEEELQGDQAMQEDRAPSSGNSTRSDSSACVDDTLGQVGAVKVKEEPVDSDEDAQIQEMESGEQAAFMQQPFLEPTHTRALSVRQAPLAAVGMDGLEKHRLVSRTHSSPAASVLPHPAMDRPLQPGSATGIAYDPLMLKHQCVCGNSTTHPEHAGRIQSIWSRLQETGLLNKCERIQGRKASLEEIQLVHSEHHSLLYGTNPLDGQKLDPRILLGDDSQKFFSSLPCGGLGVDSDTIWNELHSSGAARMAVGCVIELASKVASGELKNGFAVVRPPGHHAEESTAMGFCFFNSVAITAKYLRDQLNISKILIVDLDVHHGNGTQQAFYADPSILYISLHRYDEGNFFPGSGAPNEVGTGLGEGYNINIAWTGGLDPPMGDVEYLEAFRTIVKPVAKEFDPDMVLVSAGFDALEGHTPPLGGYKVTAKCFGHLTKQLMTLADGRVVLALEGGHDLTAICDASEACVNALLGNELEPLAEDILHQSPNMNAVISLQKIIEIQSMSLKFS

SK-N-MC [8] = assay: Cytotoxicity against human SK-N-MC cells measured after 72 hrs by MTT assay; assay type: functional, cell-based
TC-32 [9] = assay: Cytotoxicity against human TC-32 cells measured after 72 hrs by MTT assay; assay type: functional, cell-based; settings: TC-32, 72 h
NCI-H82 [10] = assay: Cytotoxicity against human NCI-H82 cells measured after 72 hrs by MTT assay; assay type: functional, cell-based; settings: NCI-H82, 72 h
Rec1 [11] = assay: Cytotoxicity against human REC1 cells measured after 72 hrs by MTT assay; assay type: functional, cell-based; settings: Rec1, 72 h
[12] = Cytotoxicity against hTERT cells at 10 uM measured after 24 to 48 hrs by Cell-titer glo assay relative to control; assay type: cell-based; settings: human, time 24-48 hrs
[13] = biological target: Aurora kinase B (Homo sapiens) (UniProt Q96GD4); assay: Inhibition of Aurora B kinase (unknown origin) at 10 uM in presence of ATP incubated for 30 min followed by addition of kinase glo-reagent measured after 20 mins by Luminescence based plate reader assay relative to control; settings: time 50.0 min
Chain of Aurora kinase B (Homo sapiens) (Q96GD4 whole entry): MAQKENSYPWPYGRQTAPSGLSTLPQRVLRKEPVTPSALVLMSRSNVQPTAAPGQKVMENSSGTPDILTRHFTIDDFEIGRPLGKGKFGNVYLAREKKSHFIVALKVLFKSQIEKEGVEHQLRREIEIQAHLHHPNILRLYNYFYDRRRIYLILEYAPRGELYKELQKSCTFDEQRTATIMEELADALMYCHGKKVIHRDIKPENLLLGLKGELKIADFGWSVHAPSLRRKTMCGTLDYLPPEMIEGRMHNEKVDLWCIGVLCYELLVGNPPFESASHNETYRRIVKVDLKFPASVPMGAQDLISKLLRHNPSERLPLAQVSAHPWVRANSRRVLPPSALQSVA

A673 [14] = assay: Cytotoxicity against human A673 cells measured after 72 hrs by MTT assay; assay type: functional, cell-based; settings: A673, 72 h
786-0 [15] = assay: Cytotoxicity against human 786-0 cells measured after 72 hrs by MTT assay; assay type: functional, cell-based; settings: 786-0, 72 h
TC-71 [16] = assay: Anticlonogenic activity against human TC71 cells assessed as reduction of cell survival at 0.5 to 20 uM measured after 10 days by SRB staining clonogenic survival assay; assay type: functional, cell-based; settings: dose 0.5-20 µM, time 10.0 day
[17] = biological target: T3, Protein deacetylase HDAC6 (Homo sapiens) (UniProt Q9UBN7); assay: Inhibition on human recombinant HDAC6 at 10 uM measured after 20 min by luminescence glo assay
T3 sequence (whole entry): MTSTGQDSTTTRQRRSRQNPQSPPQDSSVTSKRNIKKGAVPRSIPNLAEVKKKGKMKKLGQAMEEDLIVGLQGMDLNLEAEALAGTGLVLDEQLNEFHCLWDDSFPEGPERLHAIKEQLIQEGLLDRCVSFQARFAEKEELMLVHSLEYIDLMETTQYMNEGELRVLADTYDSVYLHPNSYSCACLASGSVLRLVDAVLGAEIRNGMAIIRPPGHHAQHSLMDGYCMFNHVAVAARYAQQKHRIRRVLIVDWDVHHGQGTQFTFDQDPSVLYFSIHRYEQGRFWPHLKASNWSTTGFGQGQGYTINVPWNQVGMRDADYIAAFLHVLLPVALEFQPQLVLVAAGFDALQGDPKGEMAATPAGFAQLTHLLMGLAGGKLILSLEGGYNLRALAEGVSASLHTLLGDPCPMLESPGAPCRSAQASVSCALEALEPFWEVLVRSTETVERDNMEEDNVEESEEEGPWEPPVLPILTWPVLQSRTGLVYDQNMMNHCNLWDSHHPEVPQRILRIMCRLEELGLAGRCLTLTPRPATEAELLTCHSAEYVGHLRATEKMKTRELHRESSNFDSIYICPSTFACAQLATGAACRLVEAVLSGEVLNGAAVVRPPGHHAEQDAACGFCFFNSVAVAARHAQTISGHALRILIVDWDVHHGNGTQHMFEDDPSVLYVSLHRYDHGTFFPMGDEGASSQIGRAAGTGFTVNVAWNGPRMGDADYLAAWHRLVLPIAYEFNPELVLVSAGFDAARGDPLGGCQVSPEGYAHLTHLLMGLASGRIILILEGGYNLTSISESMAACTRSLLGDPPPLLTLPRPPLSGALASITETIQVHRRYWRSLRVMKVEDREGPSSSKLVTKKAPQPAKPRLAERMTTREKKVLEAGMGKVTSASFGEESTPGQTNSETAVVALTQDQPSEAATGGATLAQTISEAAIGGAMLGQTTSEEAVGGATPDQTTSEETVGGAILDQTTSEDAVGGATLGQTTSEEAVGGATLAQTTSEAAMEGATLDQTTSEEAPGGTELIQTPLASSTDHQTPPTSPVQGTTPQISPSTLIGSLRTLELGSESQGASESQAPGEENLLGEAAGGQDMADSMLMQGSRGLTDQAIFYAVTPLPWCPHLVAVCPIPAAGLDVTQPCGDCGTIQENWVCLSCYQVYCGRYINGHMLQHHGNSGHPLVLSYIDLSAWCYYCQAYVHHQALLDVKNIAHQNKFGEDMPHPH

[18] = Cytotoxicity against human 6647 cells measured after 72 hrs by MTT assay; assay type: functional, cell-based; settings: Homo sapiens, 6647, 72 h
HEK293 = assay: Cytotoxicity against HEK293 cells at 10 uM measured after 24 to 48 hrs by Cell-titer glo assay relative to control; assay type: cell-based; settings: human, hek293, 10 µM, time 24-48 hrs
PC-3 [19] = assay: Cytotoxicity against human PC-3 cells measured after 72 hrs by MTT assay; assay type: functional, cell-based; settings: PC-3, 72 h
MCF7 [20] = assay: Cytotoxicity against human MCF7 cells measured after 72 hrs by MTT assay; assay type: functional, cell-based; settings: MCF7, 72 h
[21] = biological target: {'v': 'hERG (KCNH2)', 'o': 'p', 'q': 'Inhibition of human ERG at 10 uM'} (Homo sapiens, UniProt Q12809); assay: Inhibition of human ERG at 10 uM relative to control
Chain of {'v': 'hERG (KCNH2)', 'o': 'p', 'q': 'Inhibition of human ERG at 10 uM'} (Q12809 whole entry): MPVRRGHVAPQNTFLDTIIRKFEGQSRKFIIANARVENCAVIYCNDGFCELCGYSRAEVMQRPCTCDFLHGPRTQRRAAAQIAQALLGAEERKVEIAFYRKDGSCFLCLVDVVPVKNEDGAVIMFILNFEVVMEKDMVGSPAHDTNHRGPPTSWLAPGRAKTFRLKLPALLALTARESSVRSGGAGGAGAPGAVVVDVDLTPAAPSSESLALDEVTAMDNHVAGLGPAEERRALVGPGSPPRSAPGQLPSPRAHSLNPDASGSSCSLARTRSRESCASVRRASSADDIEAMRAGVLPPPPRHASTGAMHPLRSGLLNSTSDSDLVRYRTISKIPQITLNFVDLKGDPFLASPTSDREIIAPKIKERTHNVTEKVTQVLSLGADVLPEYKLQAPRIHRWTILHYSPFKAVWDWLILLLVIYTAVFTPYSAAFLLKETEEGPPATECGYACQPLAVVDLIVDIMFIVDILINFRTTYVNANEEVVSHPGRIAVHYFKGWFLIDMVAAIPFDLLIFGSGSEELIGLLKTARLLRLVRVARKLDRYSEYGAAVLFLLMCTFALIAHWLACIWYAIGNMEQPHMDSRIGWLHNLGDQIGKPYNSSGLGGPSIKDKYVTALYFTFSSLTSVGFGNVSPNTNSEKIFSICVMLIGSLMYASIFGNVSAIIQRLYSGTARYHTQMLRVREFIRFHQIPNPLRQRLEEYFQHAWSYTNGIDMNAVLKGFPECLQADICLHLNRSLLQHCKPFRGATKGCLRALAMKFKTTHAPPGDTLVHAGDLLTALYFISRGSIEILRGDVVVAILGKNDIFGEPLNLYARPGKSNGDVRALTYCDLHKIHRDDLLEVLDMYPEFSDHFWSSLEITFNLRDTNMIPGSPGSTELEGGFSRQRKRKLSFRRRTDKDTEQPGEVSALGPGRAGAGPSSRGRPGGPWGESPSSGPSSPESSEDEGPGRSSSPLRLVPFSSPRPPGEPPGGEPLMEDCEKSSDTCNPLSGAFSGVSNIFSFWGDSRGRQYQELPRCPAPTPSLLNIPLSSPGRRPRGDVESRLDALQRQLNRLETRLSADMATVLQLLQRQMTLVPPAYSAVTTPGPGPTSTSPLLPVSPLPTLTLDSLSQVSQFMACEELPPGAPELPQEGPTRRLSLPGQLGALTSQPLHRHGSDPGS

NCI-H69 [22] = assay: Cytotoxicity against human NCI-H69 cells measured after 72 hrs by MTT assay; assay type: functional, cell-based; settings: NCI-H69, 72 h
HCT-116 [23] = assay: Anticlonogenic activity against human HCT-116 cells assessed as reduction of cell survival at 0.5 to 20 uM measured after 10 days by SRB staining clonogenic survival assay; assay type: functional, cell-based; settings: dose 0.5-20 µM, time 10.0 day
[24] = biological target: 3',5'-cyclic-AMP phosphodiesterase 4C (Homo sapiens) (UniProt Q08493); assay: Inhibition of PDE4C1 (unknown origin) at 10 uM incubated for 60 mins followed by addition of binding agent and measured after 20 mins by Fluorescence Polarization assay relative to control; settings: time 80.0 min
Chain of 3',5'-cyclic-AMP phosphodiesterase 4C (Homo sapiens) (Q08493 whole entry): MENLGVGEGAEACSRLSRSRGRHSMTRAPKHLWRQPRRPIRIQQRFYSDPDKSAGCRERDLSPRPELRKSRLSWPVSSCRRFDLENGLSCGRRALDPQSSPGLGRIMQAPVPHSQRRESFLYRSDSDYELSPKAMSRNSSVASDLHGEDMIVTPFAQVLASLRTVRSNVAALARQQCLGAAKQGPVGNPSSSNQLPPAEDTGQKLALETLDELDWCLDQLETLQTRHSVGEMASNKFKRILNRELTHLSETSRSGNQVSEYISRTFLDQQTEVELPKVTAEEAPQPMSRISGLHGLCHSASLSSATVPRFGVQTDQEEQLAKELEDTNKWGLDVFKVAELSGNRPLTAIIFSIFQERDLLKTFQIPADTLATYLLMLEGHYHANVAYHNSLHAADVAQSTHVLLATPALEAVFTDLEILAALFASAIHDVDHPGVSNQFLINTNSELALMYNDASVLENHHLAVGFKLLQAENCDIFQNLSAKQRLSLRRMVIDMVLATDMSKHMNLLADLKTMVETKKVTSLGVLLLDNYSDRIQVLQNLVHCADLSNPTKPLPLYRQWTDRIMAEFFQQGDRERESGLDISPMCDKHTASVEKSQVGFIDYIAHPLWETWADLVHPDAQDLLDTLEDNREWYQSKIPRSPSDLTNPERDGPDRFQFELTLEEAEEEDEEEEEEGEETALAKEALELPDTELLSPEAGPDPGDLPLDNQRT

SK-N-MC [25] = assay: Cytotoxicity against human SK-N-MC cells at 30 uM assessed as cell proliferation rate measured after 72 hrs by MTT assay relative to control; assay type: functional
[26] = Cytotoxicity against human TC71 cells measured after 72 hrs by MTT assay; assay type: functional, cell-based; settings: TC-71, 72 h
NCI-H69 [27] = assay: Cytotoxicity against human NCI-H69 cells at 30 uM assessed as cell proliferation rate measured after 72 hrs by MTT assay relative to control; assay type: functional
TC-32 [28] = assay: Cytotoxicity against human TC-32 cells at 30 uM assessed as cell proliferation rate measured after 72 hrs by MTT assay relative to control; assay type: functional
[29] = (§1) Cytotoxicity against human TC71 cells at 30 uM assessed as cell proliferation rate measured after 72 hrs by MTT assay relative to control; assay type: functional; settings: TC-71
MCF7 [30] = assay: Cytotoxicity against human MCF7 cells at 30 uM assessed as cell proliferation rate measured after 72 hrs by MTT assay relative to control; assay type: functional
IGROV-1 [31] = assay: Cytotoxicity against human IGROV-1 cells at 30 uM assessed as cell proliferation rate measured after 72 hrs by MTT assay relative to control; assay type: functional
HCT-116 [32] = assay: Cytotoxicity against human HCT-116 cells at 30 uM assessed as cell proliferation rate measured after 72 hrs by MTT assay relative to control; assay type: functional
CAKI-1 [33] = assay: Cytotoxicity against human CAKI-1 cells at 30 uM assessed as cell proliferation rate measured after 72 hrs by MTT assay relative to control; assay type: functional
A673 [34] = assay: Cytotoxicity against human A673 cells at 30 uM assessed as cell proliferation rate measured after 72 hrs by MTT assay relative to control; assay type: functional
NCI-H82 [35] = assay: Cytotoxicity against human NCI-H82 cells at 30 uM assessed as cell proliferation rate measured after 72 hrs by MTT assay relative to control; assay type: functional
[36] = (§2) Cytotoxicity against human 6647 cells at 30 uM assessed as cell proliferation rate measured after 72 hrs by MTT assay relative to control; assay type: functional
Rec1 [37] = assay: Cytotoxicity against human REC1 cells at 30 uM assessed as cell proliferation rate measured after 72 hrs by MTT assay relative to control; assay type: functional
786-0 [38] = assay: Cytotoxicity against human 786-0 cells at 30 uM assessed as cell proliferation rate measured after 72 hrs by MTT assay relative to control; assay type: functional
PC-3 [39] = assay: Cytotoxicity against human PC-3 cells at 30 uM assessed as cell proliferation rate measured after 72 hrs by MTT assay relative to control; assay type: functional
TC-71 [40] = assay: as §1; assay type: functional
6647 = assay: as §2; assay type: functional

SMILES | IC50 (CAKI-1 [1]) [µM] | IC50 (HCT-116 [5]) [µM] | IC50 (IGROV-1 [6]) [µM] | IC50 (SK-N-MC [8]) [µM] | IC50 (TC-32 [9]) [µM] | IC50 (NCI-H82 [10]) [µM] | IC50 (Rec1 [11]) [µM] | IC50 (A673 [14]) [µM] | IC50 (786-0 [15]) [µM] | IC50 [18] [µM] | IC50 (PC-3 [19]) [µM] | IC50 (MCF7 [20]) [µM] | IC50 (NCI-H69 [22]) [µM] | Emax at 30 µM (SK-N-MC [25]) [%] | IC50 [26] [µM] | Emax at 30 µM (TC-32 [28]) [%] | Emax at 30 µM (HCT-116 [32]) [%] | further results
Cc1ccc(C(=O)N[C@@H](C(=O)Nc2ccc3c(c2)/C(=C/c2cnc[nH]2)C(=O)N3)c2ccccc2)c(=O)n1Cc1ccc(F)c(F)c1 | > 30 | > 30 | > 30 | 3 | > 30 | > 30 | > 30 | > 30 | > 30 | 4.7 | > 30 | > 30 | > 30 | 83 | > 30 |  |  | inhibition [2]: < 30%; inhibition [3]: < 30%; inhibition [4]: < 30%; inhibition [7]: < 30%; Activity [12]: < 25%; inhibition [13]: < 20%; Activity (TC-71 [16]): Dose-Dependent Effect; inhibition [17]: < 30%; Activity (HEK293): < 25%; inhibition at 10 µM [21]: 56%; Activity (HCT-116 [23]): Dose-Dependent Effect; inhibition [24]: < 30%
NCC(=O)Nc1ccc(-n2nc(C(F)(F)F)cc2-c2ccc3c(ccc4ccccc43)c2)cc1 [AR-12] | 5 | 2.7 | 3.7 | 6 | 2 | 4 | 3.8 | 2.1 | 2.9 | 0.3 | 6.5 | 2.8 | 1.8 | 81 | 0.8 | 75 | 95 | Emax at 30 µM (NCI-H69 [27]): 80%; Emax at 30 µM [29]: 95%; Emax at 30 µM (MCF7 [30]): 89%; Emax at 30 µM (IGROV-1 [31]): 91%; Emax at 30 µM (CAKI-1 [33]): 95%; Emax at 30 µM (A673 [34]): 95%; Emax at 30 µM (NCI-H82 [35]): 90%; Emax at 30 µM [36]: 89%; Emax at 30 µM (Rec1 [37]): 90%; Emax at 30 µM (786-0 [38]): 80%; Emax at 30 µM (PC-3 [39]): 80%
O=C(O)[C@]1(Cc2cccc(Nc3nccs3)n2)CC[C@@H](Oc2cccc(Cl)c2F)CC1 [MK-5108] | > 30 | 16.3 | > 30 | > 30 | 5.6 | > 30 | > 30 | > 30 | > 30 | 0.6 | > 30 | > 30 | > 30 |  | 1.6 | -59 | 40 | Emax (TC-71 [40]): 70%; Emax 6647: 82%
